From paper PMC12680861, “Comparative analysis of LJ-4378 and tirzepatide in mouse models of obesity and weight regain” (Archives of Pharmacal Research, 2025)
Where two headings read alike, the source gives them in different places.

Experiments:
CYP1A2 = molecular target: T1, CYP1A2 (Homo sapiens, UniProt P05177); test: CYP enzyme inhibition in pooled human liver microsomes (phenacetin substrate); details: human, pooled human liver microsomes, pH 7.4
T1 sequence (P05177 1-516): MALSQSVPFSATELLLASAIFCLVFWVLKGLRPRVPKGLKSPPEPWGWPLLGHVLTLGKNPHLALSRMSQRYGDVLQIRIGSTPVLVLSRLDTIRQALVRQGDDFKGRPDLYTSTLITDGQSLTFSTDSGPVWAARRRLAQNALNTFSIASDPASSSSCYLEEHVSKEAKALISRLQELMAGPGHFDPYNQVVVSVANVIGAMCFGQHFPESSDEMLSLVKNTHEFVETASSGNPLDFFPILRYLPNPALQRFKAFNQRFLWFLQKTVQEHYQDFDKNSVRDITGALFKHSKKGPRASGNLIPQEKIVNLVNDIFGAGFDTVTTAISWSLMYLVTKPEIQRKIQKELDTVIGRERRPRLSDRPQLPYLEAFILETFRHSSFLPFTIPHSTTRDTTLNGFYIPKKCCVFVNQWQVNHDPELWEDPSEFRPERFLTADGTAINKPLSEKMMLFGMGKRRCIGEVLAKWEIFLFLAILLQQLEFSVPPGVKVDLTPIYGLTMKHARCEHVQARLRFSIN
Experimental: (§1) Cytochrome 450 (CYP) enzyme inhibition was evaluated using pooled human liver microsomes (Corning, #452117). […] Substrates and corresponding metabolites for each CYP isoform were as follows: phenacetin and acetaminophen for CYP1A2 (Sigma Aldrich, #77440 and A7085, respectively), diclofenac and 4'-hydroxydiclofenac for CYP2C9 (Sigma Aldrich, D6899; TRC, H825225), S-mephenytoin and 4'-hydroxymephenytoin for CYP2C19 (Sigma Aldrich, UC175; Santacruz, sc210197), dextromethorphan and dextrorphan for CYP2D6 (Sigma Aldrich, #81091 and UC205), and midazolam and 1'-hydroxymidazolam for CYP3A4 (KFDA; Sigma Aldrich, UC430).
(§2) Samples were preincubated at 37 °C for 5 min, and the reaction was initiated by the addition of the NADPH regeneration system, followed by incubation at 37 °C for 15 min. The reaction was terminated by adding acetonitrile containing the internal standard, and centrifuged at 15,000 rpm for 5 min at 4 °C. The supernatant was analyzed by LC–MS/MS using a Nexera XR system (Shimadzu, Japan) coupled with a TSQ Vantage mass spectrometer (Thermo, USA). […] Metabolites were quantified in multiple reaction monitoring (MRM) mode with Xcalibur software (version 4.4).
(§3) All experiments were performed in duplicate with variability ≤ 15%. The percent activity of each CYP enzyme was calculated based on metabolite formation relative to the no-inhibitor control.

CYP2C9 = CYP2C9 (Homo sapiens, UniProt P11712); test: CYP enzyme inhibition in pooled human liver microsomes (diclofenac substrate); details: human, pooled human liver microsomes, pH 7.4
Experimental: as §1, §2, §3

CYP2C19 = CYP2C19 (Homo sapiens, UniProt P33261); test: CYP enzyme inhibition in pooled human liver microsomes (S-mephenytoin substrate); details: human, pooled human liver microsomes, pH 7.4
Experimental: as §1, §2, §3

[1] = Plasma protein binding, Rapid Equilibrium Dialysis (RED); type: in vitro ADME, human; details: human, plasma (100%, sodium citrate), pH 7.4, 37 °C, read-out: Plasma free fraction (% Free), Human
Experimental: (§4) The plasma protein binding of LJ-4378 was evaluated using the Rapid Equilibrium Dialysis (RED) method with 100% plasma from human (Biochemed, BC22089NCP), rat (Innovative, IRT-N), and mouse (Biochemed, 029-APSC-MP), all treated with sodium citrate as an anticoagulant. The RED device (ThermoFisher Scientific, #89809) and reusable base plate (ThermoFisher Scientific, #89811) were used with an 8 K MWCO membrane. Test compounds were added to plasma at a final concentration of 10 μM and dialyzed against phosphate-buffered saline (PBS, pH 7.4; Hyclone, #SH30256.01) at 37 °C for 4 h. After incubation, equal volumes of plasma and PBS samples were mixed with blank PBS and blank plasma, respectively, followed by the addition of acetonitrile containing chlorpropamide (TRC, C424800) as the internal standard. […] All measurements were performed in duplicate with a deviation of less than 15% between replicates. The free fraction (% Free) was calculated as (concentration in buffer chamber/concentration in plasma chamber) × 100, and the bound fraction (% Bound) was obtained by subtracting % Free from 100. In cases where measurements were unstable, deviations greater than 15% were allowed.

[2] = as above; type: in vitro ADME, rat; details: rat, plasma (100%, sodium citrate), pH 7.4, 37 °C, read-out: Plasma free fraction (% Free), Rat
Experimental: as §4

[3] = as above; type: in vitro ADME, mouse; details: mouse, plasma (100%, sodium citrate), pH 7.4, 37 °C, read-out: Plasma free fraction (% Free), Mouse
Experimental: as §4

Plasma stability assay [4] = type: in vitro ADME, human; details: human, plasma (100%, sodium citrate), 37 °C
Experimental: (§5) The plasma stability of LJ-4378 was evaluated using 100% plasma obtained from human (Biochemed, BC22089NCP, sodium citrate), rat (Innovative, IRT-N, sodium citrate), and mouse (Biochemed, 029-APSC-MP, sodium citrate). 10 Μm of LJ-4378 was added to the plasma, and samples were incubated at 37 °C for 0, 30, and 120 min. At each time point, an aliquot of the plasma was removed and mixed with acetonitrile containing the internal standard, chlorpropamide (TRC, C424800). […] The supernatant was injected into the LC–MS/MS system for quantification of the remaining compound. Analysis was performed using a Nexera XR system (Shimadzu, Japan) with a TSQ Vantage mass spectrometer (Thermo, USA). […] Data acquisition was conducted in MRM mode using Xcalibur software (version 4.4). All experiments were performed in duplicate with a deviation within 15%, and the percentage of compound remaining (% Remaining) at each time point was calculated relative to the non-incubated control sample. For quality control, procaine and enalapril (each at 10 μM) were used as reference compounds and were confirmed to fall within acceptable ranges.

Plasma stability assay [5] = type: in vitro ADME, rat; details: rat, plasma (100%, sodium citrate), 37 °C; for remaining at 0.5 h, 10 μM: 30 min, read-out: % Remaining compound, Rat plasma 30 min; for remaining at 2 h, 10 μM: 120 min, read-out: % Remaining compound, Rat plasma 120 min
Experimental: as §5

Plasma stability assay [6] = type: in vitro ADME, mouse; details: mouse, plasma (100%, sodium citrate), 37 °C; for remaining at 0.5 h, 10 μM: 30 min, read-out: % Remaining compound, Mouse plasma 30 min; for remaining at 2 h, 10 μM: 120 min, read-out: % Remaining compound, Mouse plasma 120 min
Experimental: as §5

Chain of CYP2C19 (P33261 whole entry): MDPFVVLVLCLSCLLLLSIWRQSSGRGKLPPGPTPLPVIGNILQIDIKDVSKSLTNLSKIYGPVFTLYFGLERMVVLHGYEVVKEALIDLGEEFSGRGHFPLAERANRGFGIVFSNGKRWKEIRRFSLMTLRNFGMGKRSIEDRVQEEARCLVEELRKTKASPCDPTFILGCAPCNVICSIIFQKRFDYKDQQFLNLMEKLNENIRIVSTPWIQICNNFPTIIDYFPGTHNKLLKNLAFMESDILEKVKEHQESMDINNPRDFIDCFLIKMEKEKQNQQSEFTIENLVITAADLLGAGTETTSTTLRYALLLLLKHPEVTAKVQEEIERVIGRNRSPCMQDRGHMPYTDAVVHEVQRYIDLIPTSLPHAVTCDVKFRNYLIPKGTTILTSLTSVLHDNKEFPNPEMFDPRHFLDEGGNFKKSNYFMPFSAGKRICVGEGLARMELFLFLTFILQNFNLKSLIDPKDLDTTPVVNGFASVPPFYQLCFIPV
Chain of CYP2C9 (P11712 whole entry): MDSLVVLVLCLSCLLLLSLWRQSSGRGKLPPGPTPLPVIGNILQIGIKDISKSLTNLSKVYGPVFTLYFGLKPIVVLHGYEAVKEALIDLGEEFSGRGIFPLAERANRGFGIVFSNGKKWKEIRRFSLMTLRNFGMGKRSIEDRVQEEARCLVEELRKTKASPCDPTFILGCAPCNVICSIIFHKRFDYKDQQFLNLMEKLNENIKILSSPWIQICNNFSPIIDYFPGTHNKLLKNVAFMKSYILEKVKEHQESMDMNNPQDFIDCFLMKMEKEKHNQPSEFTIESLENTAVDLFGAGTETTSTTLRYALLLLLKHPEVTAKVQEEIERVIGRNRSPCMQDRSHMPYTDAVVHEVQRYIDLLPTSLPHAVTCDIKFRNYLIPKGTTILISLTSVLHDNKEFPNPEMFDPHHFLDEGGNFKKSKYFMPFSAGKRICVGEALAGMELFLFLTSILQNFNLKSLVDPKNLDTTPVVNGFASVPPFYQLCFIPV

| fraction unbound at 4 h, 10 μM [1] | fraction unbound at 4 h, 10 μM [2] | fraction unbound at 4 h, 10 μM [3] | remaining at 0.5 h, 10 μM (Plasma stability assay [5]) | remaining at 2 h, 10 μM (Plasma stability assay [5]) | remaining at 0.5 h, 10 μM (Plasma stability assay [6]) | remaining at 2 h, 10 μM (Plasma stability assay [6]) | Structure (SMILES) | also measured |
| --- | --- | --- | --- | --- | --- | --- | --- | --- |
| – | – | – | – | – | – | – | CC(=O)N1CCN(c2ccc(OCC3COC(Cn4ccnc4)(c4ccc(Cl)cc4Cl)O3)cc2)CC1 (stereo not drawn) [Ketoconazole, ketoconazole, reference compound] | activity at 15 min, 10 µM (CYP1A2): 98.3%; activity at 15 min, 10 µM (CYP2C9): 98%; activity at 15 min, 10 µM (CYP2C19): > 100% |
| 0.359 | 0.222 | 0.297 | – | – | – | – | C[C@@H]1C[C@H]2[C@@H]3CCC4=CC(=O)C=C[C@]4(C)[C@@]3(F)[C@@H](O)C[C@]2(C)[C@@]1(O)C(=O)CO [Dexamethasone] | – |
| 0.006 | 0.01 | 0.062 | – | – | – | – | CC(=O)CC(c1ccccc1)c1c(O)c2ccccc2oc1=O (stereo not drawn) [Warfarin] | – |
| – | – | – | 85.2% | 45.2% | 7% | < 1% | CCN(CC)CCOC(=O)c1ccc(N)cc1 [Procaine, procaine] | remaining at 5 min, 10 μM (Plasma stability assay [4]; 5 min (printed in the 30 min column), read-out: % Remaining compound, Human plasma 5 min): 1.2%; remaining at 10 min, 10 μM (Plasma stability assay [4]; 10 min (printed in the 120 min column), read-out: % Remaining compound, Human plasma 10 min): < 1% |
| – | – | – | 34.5% | 1.4% | 66% | 26.3% | CCOC(=O)[C@H](CCc1ccccc1)N[C@@H](C)C(=O)N1CCC[C@H]1C(=O)O [Enalapril, enalapril] | remaining at 0.5 h, 10 μM (Plasma stability assay [4]; 30 min, read-out: % Remaining compound, Human plasma 30 min): > 100%; remaining at 2 h, 10 μM (Plasma stability assay [4]; 120 min, read-out: % Remaining compound, Human plasma 120 min): 95.9% |
